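How tested: cells in 96-well plates exposed to compound for 48 hours at five concentrations. The concentration for 50% growth inhibition is given as GI50.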 Activity calls are given as the source filed them. No stated cut-off is given here; in the data, active = GI50 up to about 1.1 µM and inactive = higher.
What was measured:
Assay in all cases: NCI tumour cell line growth inhibition, 48 h
DMS-114 = tested on: DMS-114
NCI-H460 = tested on: NCI-H460
UACC-62 = tested on: UACC-62
RXF 631 = tested on: RXF 631
HT-29 = tested on: HT-29
EKVX = tested on: EKVX
SNB-19 = tested on: SNB-19
NCI-H23 = tested on: NCI-H23
RPMI-8226 = tested on: RPMI-8226
OVCAR-8 = tested on: OVCAR-8
XF498 = tested on: XF498
SN12C = tested on: SN12C
CAKI-1 = tested on: CAKI-1
COLO 205 = tested on: COLO 205
ACHN = tested on: ACHN
Malme-3M = tested on: Malme-3M
KM12 = tested on: KM12
K562 = tested on: K562
DLD-1 = tested on: DLD-1
SK-OV-3 = tested on: SK-OV-3
SW-620 = tested on: SW-620
HOP-62 = tested on: HOP-62
CCRF-CEM = tested on: CCRF-CEM
SF-539 = tested on: SF-539
786-0 = tested on: 786-0
KM-20L2 = tested on: KM-20L2
LXFL 529 = tested on: LXFL 529
OVCAR-4 = tested on: OVCAR-4
HOP-18 = tested on: HOP-18
IGROV-1 = tested on: IGROV-1
SF-295 = tested on: SF-295
SK-MEL-2 = tested on: SK-MEL-2
MOLT-4 = tested on: MOLT-4
HOP-92 = tested on: HOP-92
UACC-257 = tested on: UACC-257
SK-MEL-5 = tested on: SK-MEL-5
HCT-15 = tested on: HCT-15
HL-60 = tested on: HL-60
SK-MEL-28 = tested on: SK-MEL-28
A549 = tested on: A549
SF-268 = tested on: SF-268
NCI-H226 = tested on: NCI-H226
U-251 = tested on: U-251
SR = tested on: SR
UO-31 = tested on: UO-31
M14 = tested on: M14
HCT-116 = tested on: HCT-116
RXF 393 = tested on: RXF 393
TK-10 = tested on: TK-10
SNB-75 = tested on: SNB-75
M19-MEL = tested on: M19-MEL
NCI-H522 = tested on: NCI-H522
OVCAR-3 = tested on: OVCAR-3
LOX IMVI = tested on: LOX IMVI
HCC 2998 = tested on: HCC 2998
OVCAR-5 = tested on: OVCAR-5
A498 = tested on: A498
DMS-273 = tested on: DMS-273

CC(C)C1CO[C@]2(C)CCC(=O)N12 (stereo partly specified)
GI50 (DMS-114): > 100 µM (inactive) | GI50 (NCI-H460): > 100 µM (inactive) | GI50 (UACC-62): > 100 µM (inactive) | GI50 (RXF 631): > 100 µM (inactive) | GI50 (HT-29): > 100 µM (inactive) | GI50 (EKVX): > 100 µM (inactive) | GI50 (SNB-19): > 100 µM (inactive) | GI50 (NCI-H23): > 100 µM (inactive) | GI50 (RPMI-8226): > 100 µM (inactive) | GI50 (OVCAR-8): > 100 µM (inactive) | GI50 (XF498): > 100 µM (inactive) | GI50 (SN12C): > 100 µM (inactive) | GI50 (CAKI-1): > 100 µM (inactive) | GI50 (COLO 205): > 100 µM (inactive) | GI50 (ACHN): > 100 µM (inactive) | GI50 (Malme-3M): > 100 µM (inactive) | GI50 (KM12): > 100 µM (inactive) | GI50 (K562): > 100 µM (inactive) | GI50 (DLD-1): > 100 µM (inactive) | GI50 (SK-OV-3): > 100 µM (inactive) | GI50 (SW-620): > 100 µM (inactive) | GI50 (HOP-62): > 100 µM (inactive) | GI50 (CCRF-CEM): > 100 µM (inactive) | GI50 (SF-539): > 100 µM (inactive) | GI50 (786-0): > 100 µM (inactive) | GI50 (KM-20L2): > 100 µM (inactive) | GI50 (LXFL 529): > 100 µM (inactive) | GI50 (OVCAR-4): > 100 µM (inactive) | GI50 (HOP-18): > 100 µM (inactive) | GI50 (IGROV-1): > 100 µM (inactive) | GI50 (SF-295): > 100 µM (inactive) | GI50 (SK-MEL-2): > 100 µM (inactive) | GI50 (MOLT-4): > 100 µM (inactive) | GI50 (HOP-92): > 100 µM (inactive) | GI50 (UACC-257): > 100 µM (inactive) | GI50 (SK-MEL-5): > 100 µM (inactive) | GI50 (HCT-15): > 100 µM | GI50 (HL-60): > 100 µM (inactive) | GI50 (SK-MEL-28): > 100 µM (inactive) | GI50 (A549): > 100 µM (inactive) | GI50 (SF-268): > 100 µM (inactive) | GI50 (NCI-H226): > 100 µM (inactive) | GI50 (U-251): > 100 µM (inactive) | GI50 (SR): > 100 µM (inactive) | GI50 (UO-31): > 100 µM (inactive) | GI50 (M14): > 100 µM (inactive) | GI50 (HCT-116): > 100 µM (inactive) | GI50 (RXF 393): > 100 µM (inactive) | GI50 (TK-10): > 100 µM (inactive) | GI50 (SNB-75): > 100 µM (inactive) | GI50 (M19-MEL): > 100 µM (inactive) | GI50 (NCI-H522): > 100 µM (inactive) | GI50 (OVCAR-3): > 100 µM (inactive)

Cc1ccc(CCNC(=S)SCC(NC(=O)CCC(N)C(=O)O)C(=O)NCC(=O)O)cc1 (stereo unspecified)
GI50 (DMS-114): 0.873 µM (active) | GI50 (NCI-H460): 2.61 µM (inactive) | GI50 (UACC-62): 1.41 µM (inactive) | GI50 (RXF 631): 2.2 µM (inactive) | GI50 (HT-29): 1.46 µM (inactive) | GI50 (EKVX): 6.19 µM (inactive) | GI50 (SNB-19): 2.17 µM (inactive) | GI50 (NCI-H23): 2.6 µM (inactive) | GI50 (RPMI-8226): 0.288 µM (active) | GI50 (OVCAR-8): 2 µM (inactive) | GI50 (XF498): 1.49 µM (inactive) | GI50 (SN12C): 1.76 µM (inactive) | GI50 (CAKI-1): 1.41 µM (inactive) | GI50 (COLO 205): 2.51 µM (inactive) | GI50 (ACHN): 2.02 µM (inactive) | GI50 (Malme-3M): 2.01 µM (inactive) | GI50 (KM12): 0.533 µM (active) | GI50 (LOX IMVI): 0.388 µM (active) | GI50 (K562): 0.398 µM (active) | GI50 (DLD-1): 0.764 µM (active) | GI50 (SK-OV-3): 7.4 µM (inactive) | GI50 (HCC 2998): 2.04 µM (inactive) | GI50 (OVCAR-5): 2.51 µM (inactive) | GI50 (SW-620): 0.767 µM (active) | GI50 (HOP-62): 2.96 µM (inactive) | GI50 (CCRF-CEM): 0.442 µM (active) | GI50 (SF-539): 1.48 µM (inactive) | GI50 (A498): 2.03 µM (inactive) | GI50 (786-0): 0.385 µM (active) | GI50 (KM-20L2): 2.12 µM (inactive) | GI50 (LXFL 529): 0.75 µM (active) | GI50 (OVCAR-4): 2.99 µM (inactive) | GI50 (HOP-18): 2.52 µM (inactive) | GI50 (IGROV-1): 2.11 µM (inactive) | GI50 (SF-295): 2.81 µM (inactive) | GI50 (DMS-273): 0.414 µM (active) | GI50 (SK-MEL-2): 0.385 µM (active) | GI50 (MOLT-4): 1.23 µM (inactive) | GI50 (HOP-92): 1.17 µM (inactive) | GI50 (UACC-257): 1.99 µM (inactive) | GI50 (SK-MEL-5): 1.73 µM (inactive) | GI50 (HCT-15): 1.43 µM | GI50 (HL-60): 0.51 µM (active) | GI50 (SK-MEL-28): 2.75 µM (inactive) | GI50 (A549): 3.57 µM (inactive) | GI50 (SF-268): 2.7 µM (inactive) | GI50 (NCI-H226): 2.26 µM (inactive) | GI50 (U-251): 1.87 µM (inactive) | GI50 (SR): 2.13 µM (inactive) | GI50 (UO-31): 1.12 µM (inactive) | GI50 (M14): 1.22 µM (inactive) | GI50 (HCT-116): 2.17 µM (inactive) | GI50 (RXF 393): 0.718 µM (active) | GI50 (TK-10): 2.84 µM (inactive) | GI50 (SNB-75): 0.435 µM (active) | GI50 (M19-MEL): 1.7 µM (inactive) | GI50 (NCI-H522): 0.327 µM (active) | GI50 (OVCAR-3): 2.17 µM (inactive)

Reference: ChEMBL document CHEMBL1201862, “PubChem BioAssay data set” (2004)
